From patent US20250154112A1, “A PREPARATION OF QUINAZOLINEDIONES AND USE THEREOF” (COUNCIL OF SCIENTIFIC AND INDUSTRIAL RESEARCH AN INDIAN …, priority 2021, published 2025)
≈ marks a conversion by molar mass, not a printed value.

Columns and labels:
[1] = tested on: ATGL; test: Western blot of ATGL level in HepG2 cells after compound treatment; format: cell-based; details: 24 hours; for ATGL level (Western Blot): 50 nM to 5 μM dose dependent, with respect to control; for induction of ATGL (Western Blot): 5 μM
Protocol: (§1) HepG2 cells were treated with the compounds 5, 8, 11, 59, 62, 91, 94 (50 nM, 100 nM, 200 nM, 500 nM, 1 μM and 5 μM for dose dependent assays) for 24 hours. After removing media from the cells, the wells were washed with 1×PBS twice to remove any remnant media. Cells were then lysed in lysis buffer containing 50 mM Tris-HCl (pH 7.4), 100 mM NaCl, 1 mM EDTA, 1 mM EGTA, 1% Triton X-100 and protease inhibitor cocktail (Millipore, Billierica, MA, USA). Following centrifugation at 20,000 g for 20 minutes, the protein solution was extracted from the cells. Protein was estimated using Bradford assay. Bradford's reagent (BioRad) was diluted in 1:4 ratio in double distilled water. 2 μl of protein sample was added to 100 μl of the reagent and absorbance was measured at 595 nm. 30 μg of protein was diluted in lysis buffer. 1X loading buffer diluted from 5X stock containing 250 mM Tris-HCl (pH 6.8), 10% SDS, 50% glycerol, 0.1% bromophenol Blue and 10% β-mercaptoethanol was added. The protein samples were then heated at 95° C. for 10 minutes, cooled and centrifuged at 12,000 g for 2 minutes prior to loading.
(§2) For western blotting, the proteins were resolved in 10% SDS PAGE (discontinuous buffer system). 1X running buffer containing SDS, Tris Base and Glycine was used to run the gel at 80V for approximately 2 hours. Transfer was done using PVDF membrane (Millipore) having pore size of 0.45 μm. 1X transfer buffer containing Tris-Base, Glycine and 20% methanol was used for wet transfer. Transfer was done at 90V for 3 hours. Following transfer, the PVDF membrane containing the proteins were washed in 1×PBST comprising of 1×PBS and 1% Tween 20 (Sigma Aldrich). The membrane was then incubated for 1 hour at room temperature in 5% skim milk powder to block the non-specific sites. Following multiple washes with 1×PBST to wash away any remaining blocking buffer, the required primary antibody (COP1 [BethylLaboraties], ATGL [Cell Signalling Technology] or Actin[Cell Signalling Technology]) prepared with 1×PBST, 1% Bovine Serum Albumin and 0.04% Sodium Azide was added to the membrane and incubated overnight at 4° C. The next day, the membrane was again washed multiple times with 1×PBST to remove any unbound primary antibody. The membrane was then incubated with goat anti-rabbit secondary antibody (Genei) for 1 hour at room temperature and washed again for multiple times with 1×PBST. The membrane was then developed using Clarity™ ECL Western Blotting Substrate (BioRad) and viewed in ChemiDoc (BioRad).
as §1, with “62, 65,” for “62,”, “at” for “(50 nM, 100 nM, 200 nM, 500 nM, 1 μM and”, “μM” for “μM for dose dependent assays)”, “cocktail 1” for “cocktail”

[2] = target: T1, COP1 (Homo sapiens, UniProt Q8NHY2); test: Western blot of COP1 level in HepG2 cells after compound treatment; format: cell-based; details: 5 μM, 24 hours
T1 construct: endogenous in cells; host or cells: HepG2
T1 sequence (Q8NHY2 whole entry): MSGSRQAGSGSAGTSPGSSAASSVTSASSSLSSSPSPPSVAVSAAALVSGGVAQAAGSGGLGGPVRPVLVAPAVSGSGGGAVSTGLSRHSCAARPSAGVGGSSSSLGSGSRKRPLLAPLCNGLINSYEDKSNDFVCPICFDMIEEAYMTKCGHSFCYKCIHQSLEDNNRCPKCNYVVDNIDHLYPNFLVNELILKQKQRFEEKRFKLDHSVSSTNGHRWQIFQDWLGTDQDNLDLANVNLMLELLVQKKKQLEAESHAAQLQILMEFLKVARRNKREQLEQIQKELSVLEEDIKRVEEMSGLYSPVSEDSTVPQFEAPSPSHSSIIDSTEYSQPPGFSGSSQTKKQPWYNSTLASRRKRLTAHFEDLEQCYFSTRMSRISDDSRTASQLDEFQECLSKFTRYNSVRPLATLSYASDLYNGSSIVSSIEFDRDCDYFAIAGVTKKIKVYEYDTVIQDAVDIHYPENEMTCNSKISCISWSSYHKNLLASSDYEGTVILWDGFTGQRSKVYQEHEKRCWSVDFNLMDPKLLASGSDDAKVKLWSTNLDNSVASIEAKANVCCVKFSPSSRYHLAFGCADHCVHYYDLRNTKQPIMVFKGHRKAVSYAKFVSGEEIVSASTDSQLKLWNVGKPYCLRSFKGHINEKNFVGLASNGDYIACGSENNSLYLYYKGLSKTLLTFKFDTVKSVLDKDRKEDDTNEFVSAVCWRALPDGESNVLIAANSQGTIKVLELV
Protocol: as §1, with “62, 65,” for “62,”, “at” for “(50 nM, 100 nM, 200 nM, 500 nM, 1 μM and”, “μM” for “μM for dose dependent assays)”, “cocktail 1” for “cocktail”
as §2

[3] = Determination of EC50 (in-vitro)
[4] = tested on: ATGL; test: Fold change in ATGL by densitometric analysis; format: cell-based; details: fold change of ATGL with respect to control, normalized with actin
Protocol: Densitimetric analysis was performed by image J to calculate the fold change of ATGL with respect to control. The values were normalized with actin.

[5] = Lipophilicity assay (octanol/buffer Log D); format: physicochemical; details: pH 7.4, n-octanol/sodium phosphate buffer
Protocol: 1.56 g NaH2PO4·2H2O was dissolved in 0.5 L water in a 1 L beaker. After adjusting pH to 7.4 using NaOH solution, the volume was made up to 1 L. Equal volumes of sodium phosphate buffer (10 mM, pH 7.4) and n-octanol were added to a separation funnel and mixed thoroughly by shaking and inverting the funnel several times. The two layers were allowed to separate for overnight and then dispensed in two separate glass bottles. 10 mM stock solution was prepared in 100% DMSO and stored at 4° C. 495 μL of organic phase (1-octanol) was added to each well of a 2 mL deep well plate, followed by 495 μL of buffer and 10 μL of test substance was added. The plate was incubated for 3 hrs at room temperature on a plate shaker at 500 rpm. After incubation, the samples were allowed to equilibrate for 20 min and then centrifuged at 4000 rpm for 30 min for complete phase separation and analysed by LC-UV. Log D=Log (area of octanol/area of buffer)

[6] = Plasma stability assay; format: in vitro ADME; details: 1 μM, 37° C.
Protocol: 1 mM Stock of test compound was prepared from 10 mM initial stock solution of compounds by diluting 10 μL of 10 mM stock with 90 μL of DMSO. Then 10 μL of 1 mM stock was diluted with 90 μL of DMSO to give 100 μM concentration. The frozen plasma was thawed at room temperature and centrifuged at 1400 rpm at 4° C., for 15 minutes. Approximately 90% of the clear supernatant fraction was transferred to a separate tube and was used for the assay. Final working stock of 1 μM was prepared by diluting 3 μL of 100 μM with 297 μL of plasma. Plasma containing the test compound was incubated for 120 min at 37° C. in shaker with 500 rpm. 50 μL of aliquot of sample at 0, 15, 30, 60 and 120 minutes were precipitated with 150 μL of acetonitrile containing internal standard and centrifuged at 4000 rpm at 4° C. for 20 minutes. 120 μL of supernatant was diluted with 120 μL of water and analysed by LC-MS/MS.

[7] = Metabolic stability using human liver microsomes (HLM); format: in vitro ADME
Protocol: 1 mM stock solution of test compound was prepared in DMSO and diluted with Acetonitrile:Water (1:1) to get a 100 μM working concentration. 100 mL of Milli Q water was added to K2HPO4 (1.398 g) and KH2PO4 (0.27 g) to get final pH 7.4 solution of potassium phosphate buffer. […] The above mixture was pre incubated for 15 minutes at 37° C. After pre incubation, 32.5 μL of the mixture was added to 17.5 μL of buffer, this was incubated for 60 minutes at 37° C. [60 min Without Cofactor (NADPH)]. 16.25 μL of the pre incubated mixture and 8.75 μL of cofactor was added to 150 μL of acetonitrile containing internal standard [0 min Sample]. 62 μL of cofactor was added to remaining pre incubation mixture [Incubation mixture]. 25 μL of incubation mixture at 0, 5, 15, 30, 60 min and 60 min without cofactor were precipitated with 150 μL of acetonitrile containing internal standard, vortexed and centrifuged at 4000 rpm at 4° C. for 20 minutes. 120 μL of supernatant was diluted with 120 μL of water and analyzed by LC-MS/MS [sample preparation].

[8] = Kinetic solubility; format: physicochemical; details: pH 7.4 phosphate buffer (PBS), aqueous buffer, kinetic from dmso stock, room temperature, 1.0% DMSO
Protocol: PBS sachet was dissolved in 0.9 L of Milli Q water and pH was adjusted to 7.4. Final volume was made up to 1 L with the water and stored at ambient temperature 21-25° C. […] 4 μL from the 50 mM stock solution were added to deep well plate containing 396 μL of pH 7.4 phosphate buffer, mixed and incubated for 24 hours at room temperature with constant mixing at 300 rpm. The plate was sealed well during the incubation process. After incubation, the samples were centrifuged for 20 min at 4000 rpm. The supernatant was analysed by HPLC-UV. The DMSO content in the sample was 1.0%. The final concentration of the compound in deep well plate was 500 μM.

Compound | ATGL level (Western Blot) [1] | induction of ATGL (Western Blot) [1] | stabilization of COP1 (Western Blot) [2] | EC50 [3] [nM] | Fold change [4] | LogD @ pH 7.4 [5] | Mean % remaining at 2 hrs in human Plasma [6] [%] | % QH (Well stirred model) [7] [%] | solubility kinetic at 24 hours [8] [µg/mL] | logD [5]
COCCn1c(=O)c2cc(NC(=O)Nc3cccc(C(C)=O)c3)ccc2n(C)c1=O [Compound 8, 1-(3-acetylphenyl)-3-(3-(2-methoxyethyl)-1-methyl-2,4-dioxo-1,2,3,4-tetrahydroquinazolin-6-yl)urea] | increased ATGL level | ability to induce ATGL | stabilize the COP1 | 17.8 | 1.34 | – | – | – | – | –
COCCn1c(=O)c2cc(NC(=O)Nc3cccc(C(C)=O)c3)ccc2n(C(C)C)c1=O [Compound 11, 1-(3-acetylphenyl)-3-(1-isopropyl-3-(2-methoxyethyl)-2,4-dioxo-1,2,3,4-tetrahydroquinazolin-6-yl)urea] | increased ATGL level | ability to induce ATGL | stabilize the COP1 | 100 | 1.25 | 2.67 | 80.80 | 40.30 | 2.8 (≈ 6.39 µM) | –
COCCn1c(=O)c2cc(NC(=O)Nc3cccc(C(C)=O)c3)ccc2n(CCN2CCCC2)c1=O [Compound 59, 1-(3-acetylphenyl)-3-(3-(2-methoxyethyl)-2,4-dioxo-1-(2-(pyrrolidin-1-yl)ethyl)-1,2,3,4-tetrahydroquinazolin-6-yl)urea] | increased ATGL level | ability to induce ATGL | stabilize the COP1 | 209 | 1.18 | 2.58 | 32.80 | 17.46 | 124 (≈ 252 µM) | –
COCCn1c(=O)c2cc(NC(=O)Nc3cccc(C(C)=O)c3)ccc2n(CCN2CCOCC2)c1=O [Compound 65, 1-(3-acetylphenyl)-3-(3-(2-methoxyethyl)-1-(2-morpholinoethyl)-2,4-dioxo-1,2,3,4-tetrahydroquinazolin-6-yl)urea] | – | ability to induce ATGL | stabilize the COP1 | 50 | 1.44 | – | 48.20 | 62.0 | 20.8 (≈ 40.8 µM) | 2.08
COCCn1c(=O)c2cc(NC(=O)Nc3cccc(C(C)=O)c3)ccc2n(CCCN2CCCCC2)c1=O [Compound 91, 1-(3-acetylphenyl)-3-(3-(2-methoxyethyl)-2,4-dioxo-1-(3-(piperidin-1-yl)propyl)-1,2,3,4-tetrahydroquinazolin-6-yl)urea] | increased ATGL level | ability to induce ATGL | stabilize the COP1 | – | 1.17 | – | – | – | – | –
COCCc1ccc(OCC(O)CNC(C)C)cc1 (stereo not shown) [Metroprolol, reference compound] | – | – | – | – | – | −0.04 | – | – | – | –
CC(C)[N+](C)(CCOC(=O)C1c2ccccc2Oc2ccccc21)C(C)C [Propantheline, reference compound] | – | – | – | – | – | – | 1.70 | – | – | –
